From patent US12662451B2, “Chemical compounds and uses thereof” (GLAXOSMITHKLINE INTELLECTUAL PROPERTY (NO.4) LIMITED, priority 2023, dated 2026)
Where a name gives a salt, the structure may show the parent alone. Read-outs that look alike come from different tables or passages of the source.

Assays:
[1] = Cell culture media unbound percentage and stability by rapid equilibrium dialysis (Example C); format: in vitro ADME; settings: bovine, cell assay medium (RPMI-1640 with 10% fetal bovine serum), pH 7.4, rapid equilibrium dialysis, 4 hours at 37° C., read-out: Cell Culture Media Binding (% unbound)
Procedure, shortened: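 Compound spiked into cell culture medium at nominal 1 μM and dialysed against PBS (100 mM sodium phosphate + 150 mM NaCl, pH 7.4) by rapid equilibrium dialysis, triplicate, 4 h at 37° C with shaking. LC-MS/MS peak area ratios gave percent unbound (receiver/donor) and percent stability (240 min vs 0 min).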

[2] = target: T1, recombinant full-length WRN protein (1-1432) (Homo sapiens, UniProt Q14191); experiment: WRN unwinding activity, fluorogenic 384-well assay (Example A); format: biochemical; settings: WRN unwinding activity, 4 hr; Table 2; read-out: 4 hr UNW pIC50 (converted)
T1 construct: recombinant full-length WRN protein (1-1432)
T1 sequence (Q14191 whole entry): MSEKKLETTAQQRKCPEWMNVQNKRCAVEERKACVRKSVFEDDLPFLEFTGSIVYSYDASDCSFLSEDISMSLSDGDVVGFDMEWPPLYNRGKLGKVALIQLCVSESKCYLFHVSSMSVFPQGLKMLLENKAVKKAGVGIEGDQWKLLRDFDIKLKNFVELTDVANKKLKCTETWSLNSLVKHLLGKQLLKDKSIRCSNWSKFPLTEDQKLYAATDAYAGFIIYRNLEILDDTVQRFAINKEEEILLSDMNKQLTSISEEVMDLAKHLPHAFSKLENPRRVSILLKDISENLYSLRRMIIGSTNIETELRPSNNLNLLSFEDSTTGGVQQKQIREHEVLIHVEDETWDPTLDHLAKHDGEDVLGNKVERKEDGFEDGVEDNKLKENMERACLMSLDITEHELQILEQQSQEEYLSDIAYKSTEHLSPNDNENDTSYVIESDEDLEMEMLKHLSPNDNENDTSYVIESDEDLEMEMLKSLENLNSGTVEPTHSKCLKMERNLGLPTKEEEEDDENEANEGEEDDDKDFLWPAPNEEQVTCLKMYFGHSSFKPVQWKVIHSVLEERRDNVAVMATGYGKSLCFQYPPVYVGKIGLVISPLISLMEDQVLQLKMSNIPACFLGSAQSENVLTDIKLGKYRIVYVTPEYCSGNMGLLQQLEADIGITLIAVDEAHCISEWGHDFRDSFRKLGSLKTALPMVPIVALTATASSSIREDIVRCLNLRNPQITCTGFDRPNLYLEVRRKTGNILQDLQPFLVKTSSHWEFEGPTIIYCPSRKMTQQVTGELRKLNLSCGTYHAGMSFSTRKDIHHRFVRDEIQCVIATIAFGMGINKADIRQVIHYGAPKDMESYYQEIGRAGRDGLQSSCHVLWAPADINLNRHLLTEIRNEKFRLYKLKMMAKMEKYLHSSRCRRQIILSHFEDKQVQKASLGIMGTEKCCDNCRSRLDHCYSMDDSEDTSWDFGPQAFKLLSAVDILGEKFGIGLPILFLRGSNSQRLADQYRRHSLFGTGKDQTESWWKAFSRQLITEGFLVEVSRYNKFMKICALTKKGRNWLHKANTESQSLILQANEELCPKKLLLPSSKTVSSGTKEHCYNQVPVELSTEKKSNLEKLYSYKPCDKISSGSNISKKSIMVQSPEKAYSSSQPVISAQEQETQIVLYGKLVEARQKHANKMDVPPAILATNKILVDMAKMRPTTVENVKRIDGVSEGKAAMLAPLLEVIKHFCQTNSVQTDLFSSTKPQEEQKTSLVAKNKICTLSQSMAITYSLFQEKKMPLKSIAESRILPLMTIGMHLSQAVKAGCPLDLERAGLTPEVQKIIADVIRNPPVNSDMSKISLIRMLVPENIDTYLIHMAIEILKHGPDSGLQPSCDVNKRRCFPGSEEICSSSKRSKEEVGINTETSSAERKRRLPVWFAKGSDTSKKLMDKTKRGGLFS
Procedure, shortened: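 200 pM enzyme (2× stock) preincubated with compound 4 h at ambient temperature, then 200 μM ATP and 12 nM quenched TAMRA-labelled dsDNA (2× stocks) added for 60 min; EDTA-quenched. Buffer 25 mM Tris pH 8.0, 5 mM NaCl, 2 mM MgCl2. Fluorescence at 525/598 nm; pIC50 from four-parameter fit.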

[3] = tested on: SW48 human colorectal cancer cells; experiment: Calculated free drug potency in SW48 cell assay, corrected with media free fraction (Example C); format: cell-based; settings: Homo sapiens, SW48, SW48 pCC50 corrected with measured free fraction in cell assay media
Procedure, shortened: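 Compound spiked at nominal 1 μM into cell assay medium and dialysed against PBS (100 mM sodium phosphate, 150 mM NaCl, pH 7.4) by rapid equilibrium dialysis, 4 h, 37 °C, shaking. Percent unbound from LC-MS/MS peak area ratios (240 min vs 0 min); cell assay concentrations corrected by this free fraction.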

[4] = tested on: SW48 human colorectal cancer cells (MSI-H cancer cells); experiment: SW48 cell viability, CellTiter-Glo, 120 hours (Example B); settings: Homo sapiens
[5] = SW48, 120 h, read-out: SW48 pCC50, SW48 cell viability, 120 hours incubation (converted), Table 2
[6] = SW48, read-out: SW48 pCC50, measured potency from Example B, as repeated in Table 3 (converted)

Row | fraction unbound at 4 h, 1 µM [1] | IC50 [2] [nM] | Compound | CC50 [3] [nM] | CC50 [4, 5] [nM] | CC50 [4, 6] [nM]
1 | 0.0138 | 1.58 | Cc1nc2cc(S(=O)(=O)N(C)c3ccc([C@@H]4CCC[C@H](COc5ccc(C(F)(F)F)cc5)[C@H]4C(=O)O)cc3)cc([C@@H]3CCCNC3)c2n1C (relative stereo) [Example 207, rel-(1R,2R,6S)-2-((4-(trifluoromethyl)phenoxy)methyl)-6-(4-((N,1,2-trimethyl-7-((R)-piperidin-3-yl)-1H-benzo[d]imidazole)-5-sulfonamido)phenyl)cyclohexane-1-carboxylic acid, hydrochloride] | 110 | 7940 | 7940
2 | 0.0443 | 3.98 | Cc1nc2cc(S(=O)(=O)N(C)c3ccc([C@H]4CCC[C@@H](C(=O)Nc5ccc(C(F)(F)F)cc5F)[C@@H]4C(=O)O)cc3)c(F)cc2n1C [Example 127, (1R,2R,6S)-2-((2-fluoro-4-(trifluoromethyl)phenyl)carbamoyl)-6-(4-((6-fluoro-N,1,2-trimethyl-1H-benzo[d]imidazole)-5-sulfonamido)phenyl)cyclohexane-1-carboxylic acid] | 44.7 | 1000 | 1000
3 | 0.0214 | 5.01 | CCO[C@@H]1C[C@H](c2ccc(NS(=O)(=O)c3ccc4c(c3)nc(C)n4C)cc2)[C@@H](C(=O)O)[C@H](C(=O)Nc2ccc(C(F)(F)F)cc2F)C1 [Example 288, (1R,2S,4R,6R)-2-(4-((1,2-dimethyl-1H-benzo[d]imidazole)-5-sulfonamido)phenyl)-4-ethoxy-6-((2-fluoro-4-(trifluoromethyl)phenyl)carbamoyl)cyclohexane-1-carboxylic acid] | 21.4 | 1000 | 1000
4 | 0.0082 | 5.01 | CN(c1ccc([C@H]2CCC[C@@H](COc3ccc(C(F)(F)F)cc3)[C@@H]2C(=O)O)cc1)S(=O)(=O)c1ccc2c(c1)nc(CCN)n2C [Example 273] | 64.6 | 7940 | 7940
5 | 0.439 | 158 | CN[C@H]1C[C@H](C(=O)Nc2ccc(C(F)(F)F)cc2F)[C@@H](C(=O)O)[C@H](c2ccc(N(C)S(=O)(=O)c3ccc4c(c3)nc(C)n4C)cc2)C1 (single isomer, unassigned) [Example 255] | 3470 | 7940 | 7940
6 | 0.0163 | 5.01 | Cc1nc2cc(S(=O)(=O)N(C)c3ccc([C@H]4CCC[C@@H](C(=O)Nc5ccc(C(F)(F)F)cc5)[C@@H]4C(=O)O)cc3)ccc2n1C [Example 173, (1R,2R,6S)-2-((4-(trifluoromethyl)phenyl)carbamoyl)-6-(4-((N,1,2-trimethyl-1H-benzo[d]imidazole)-5-sulfonamido)phenyl)cyclohexane-1-carboxylic acid] | 10.2 | 631 | 631
7 | 0.241 | 2 | CN(C)Cc1cccc(S(=O)(=O)N(C)c2ccc([C@H]3CCC[C@@H](C(=O)Nc4ccc(C(F)(F)F)cc4F)[C@@H]3C(=O)O)cc2)c1 [Example 97] | 240 | 1000 | 1000
8 | 0.146 | 2.51 | Cc1nc2cc(S(=O)(=O)N(C)c3ccc([C@H]4CCC[C@@H](C(=O)Nc5ccc(C(F)F)cc5F)[C@@H]4C(=O)O)cc3)ccc2n1C [Example 179, (1R,2R,6S)-2-((4-(difluoromethyl)-2-fluorophenyl)carbamoyl)-6-(4-((N,1,2-trimethyl-1H-benzo[d]imidazole)-5-sulfonamido)phenyl)cyclohexane-1-carboxylic acid] | 145 | 1000 | 1000
9 | 0.0032 | 15.8 | Cc1nc2cc(S(=O)(=O)N(C)c3ccc([C@H]4CCC[C@@H](COc5ccc(C(F)(F)F)cc5O)[C@@H]4C(=O)O)cc3)ccc2n1C [Example 206, (1R,2R,6S)-2-((2-hydroxy-4-(trifluoromethyl)phenoxy)methyl)-6-(4-((N,1,2-trimethyl-1H-benzo[d]imidazole)-5-sulfonamido)phenyl)cyclohexane-1-carboxylic acid] | 12.9 | 3980 | 3980
10 | 0.114 | 7.94 | Cc1nc2cc(S(=O)(=O)N(C)c3ccc([C@H]4CCC[C@@H](C(=O)Nc5ccc6c(c5)CC(F)(F)C6)[C@@H]4C(=O)O)cc3)ccc2n1C [Example 194, (1R,2R,6S)-2-((2,2-difluoro-2,3-dihydro-1H-inden-5-yl)carbamoyl)-6-(4-((N,1,2-trimethyl-1H-benzo[d]imidazole)-5-sulfonamido)phenyl)cyclohexane-1-carboxylic acid] | 1150 | 10000 | –
11 | 0.0993 | 1.58 | Cc1nc2cc(S(=O)(=O)N(C)c3ccc([C@H]4C[C@H]5COC[C@H]5[C@@H](C(=O)Nc5ccc(C(F)(F)F)cc5F)[C@@H]4C(=O)O)cc3)ccc2n1C (stereo in doubt) [Example 392, rel-(3aR,4R,5R,6S,7aR)-4-((2-fluoro-4-(trifluoromethyl)phenyl)carbamoyl)-6-(4-((N,1,2-trimethyl-1H-benzo[d]imidazole)-5-sulfonamido)phenyl)octahydroisobenzofuran-5-carboxylic acid] | 25.1 | 251 | 251
12 | 0.0518 | 1.58 | CCO[C@@H]1C[C@H](c2ccc(N(C)S(=O)(=O)c3ccc4c(c3)nc(N(C)C)n4C)cc2)[C@@H](C(=O)O)[C@H](C(=O)Nc2ccc(C(F)(F)F)cc2F)C1 [Example 139, (1R,2S,4R,6R)-2-(4-((2-(dimethylamino)-N,1-dimethyl-1H-benzo[d]imidazole)-5-sulfonamido)phenyl)-4-ethoxy-6-((2-fluoro-4-(trifluoromethyl)phenyl)carbamoyl)cyclohexane-1-carboxylic acid] | 5.13 | 100 | 100
13 | 0.234 | 25.1 | CN[C@H]1C[C@H](c2ccc(N(C)S(=O)(=O)c3ccc4c(c3)nc(C)n4C)cc2)[C@@H](C(=O)O)[C@H](C(=O)Nc2ccc(C(F)(F)F)cc2F)C1 (single isomer, unassigned) [Example 254] | 2340 | 10000 | –
14 | 0.303 | 1.58 | Cc1nc2cc(S(=O)(=O)N(C)c3ccc([C@H]4CCC[C@@H](C(=O)Nc5ccc(C(C)(C)O)cc5F)[C@@H]4C(=O)O)cc3)ccc2n1C [Example 181, (1R,2R,6S)-2-((2-fluoro-4-(2-hydroxypropan-2-yl)phenyl)carbamoyl)-6-(4-((N,1,2-trimethyl-1H-benzo[d]imidazole)-5-sulfonamido)phenyl)cyclohexane-1-carboxylic acid] | 603 | 2000 | 2000
15 | 0.0056 | 7.94 | CN1CCOc2ccc(S(=O)(=O)N(C)c3ccc([C@H]4CCC[C@@H](C(=O)Nc5ccc(C(F)(F)F)cc5F)[C@@H]4C(=O)O)cc3)cc21 [Example 122, (1R,2S,6R)-2-(4-((N,4-dimethyl-3,4-dihydro-2H-benzo[b][1,4]oxazine)-6-sulfonamido)phenyl)-6-((2-fluoro-4-cyclohe(trifluoromethyl)phenyl)carbamoyl)xane-1-carboxylic acid] | 5.62 | 1000 | 1000
16 | 0.237 | 100 | Cc1nc2cc(S(=O)(=O)N(C)c3ccc([C@@H]4C[C@H](N5CCC(F)(F)CC5)C[C@H](C(=O)Nc5ccc(C(F)(F)F)cc5F)[C@H]4C(=O)O)cc3)ccc2n1C (stereo in doubt) [Example 343] | 1170 | 5010 | 5010
17 | 0.1 | 3.98 | Cc1cc(N(C)S(=O)(=O)c2ccc3c(c2)nc(C)n3C)ccc1[C@H]1CCC[C@@H](C(=O)Nc2ccc(C(F)(F)F)cc2F)[C@@H]1C(=O)O (stereo in doubt) [Example 386, rel-(1R,2R,6S)-2-((2-fluoro-4-(trifluoromethyl)phenyl)carbamoyl)-6-(2-methyl-4-((N,1,2-trimethyl-1H-benzo[d]imidazole)-5-sulfonamido)phenyl)cyclohexane-1-carboxylic acid] | 200 | 2000 | 2000
